# Assay results published in PubChem BioAssay AID489027 (Sanford-Burnham Center for Chemical Genomics, 2010).
# Calls of active or inactive are those of the source. How the calls were made is not given here.
# Target: UPR counterscreen luciferase reporter, luminescence
# Test: activators in UPR counterscreen luciferase reporter, dose response, counter-screen for adaptive UPR activator project, cell-based, luminescence (AID 489027)
row,SMILES,EC50
1,COc1cc(/C=C2/C(=N)N3C=CSC3=NC2=O)ccc1OCCCOc1cc(C)ccc1C,> 80 µM (inactive)
2,CCc1nc(C)cn1S(=O)(=O)c1cc([N+](=O)[O-])ccc1Cl,> 80 µM (inactive)
3,CCOc1cc(CNC(C)(C)CO)cc(Br)c1OCc1ccc(Cl)cc1Cl,> 80 µM (inactive)
4,O=C(Nc1nc(-c2ccc3ccccc3c2)cs1)c1ccc(N2C(=O)CCC2=O)cc1,> 80 µM (inactive)
5,Cc1ccccc1OCc1nc(-c2ccc(NC(=O)c3ccc4c(c3)OCO4)cc2)no1,inactive
6,O=C(/C(=N/N=C/c1ccc(O)c(O)c1)c1ccccc1)c1ccccc1,8.07 µM
7,COc1cccc(-n2c(SCC(=O)N3CCc4ccccc43)nnc2-c2c[nH]c3ccccc23)c1,> 80 µM (inactive)
8,Cc1cc(NC(=O)/C(C#N)=C/c2ccc(-c3ccc(SC(F)F)cc3)o2)n(-c2ccccc2)n1,> 80 µM (inactive)
9,O=C(Nc1ccc(O)c2c(=O)cc(-c3cccc(Cl)c3)oc12)c1cccc(Cl)c1,inactive
10,COc1cccc(-c2c(-c3cc(OC)cc(OC)c3)n(C)c3ccc(-c4cnc(N5CCOCC5)nc4)cc23)c1,inactive
11,COc1ccc(Cn2c(SCc3ccccc3C)nc3cc(OC)c(OC)cc3c2=N)cc1,9.65 µM
12,Cc1ccc(Cn2c(=O)n(-c3ccccc3)c(=O)c3ccc(C(=O)NCc4ccco4)cc32)cc1,> 80 µM (inactive)
13,CN(c1ccccc1)S(=O)(=O)c1cccc(C(=O)NCCc2ccc(O)c(O)c2)c1,6.18 µM
14,CCOC(=O)c1c(NC(=O)Cc2cccs2)sc(C(=O)NC2CCCCC2)c1C,> 80 µM (inactive)
15,CC1CCc2cc(F)ccc2N1C(=O)CSc1nnc2c(n1)[nH]c1ccc(F)cc12 (stereo unspecified),> 80 µM (inactive)
16,CCc1sc2nc(SCC(=O)Nc3cc(C)on3)n(-c3cccc(OC)c3)c(=O)c2c1C,15.6 µM
17,CCCCNC(=O)c1ccc(Cn2c(=S)[nH]c3c([nH]c4ccc(OC)cc43)c2=O)cc1,> 80 µM (inactive)
18,COC(=O)c1ccc(COc2ccccc2/C=C(\C#N)C(=O)Nc2c(C)cccc2C)cc1,17.4 µM
19,COc1ccc(-c2nn(C)c(=O)c3ccccc23)cc1NC(=O)Cn1nc(C)c2ccccc2c1=O,> 80 µM (inactive)
20,Cc1ccc(-c2nnc(-c3ccc(NC(=O)c4cccs4)cc3)o2)cc1,12.1 µM
21,C[C@H]1[C@H](C)CC[C@]2(C(=O)O)CC[C@]3(C)C(=CC[C@@H]4[C@@]5(C)C[C@@H](O)[C@H](O)C(C)(C)[C@@H]5CC[C@]43C)[C@H]12,> 80 µM (inactive)
22,N#C/C(=C/c1ccc(N2CCCC2)c([N+](=O)[O-])c1)c1nc2ccccc2[nH]1,> 80 µM (inactive)
23,COc1ccc(C(CCNCc2ccccc2)c2ccc(F)cc2)cc1 (stereo unspecified),10.4 µM

row,SMILES,EC50
1,COc1ccc(-c2nn(-c3ccccc3)cc2/C=N/N2C(=O)CSC2=S)cc1,> 80 µM (inactive)
2,CCOC(=O)c1c(NC(C)=O)sc2c(OCC(O)CNC(C)(C)C)c(Br)ccc12 (stereo unspecified),> 80 µM (inactive)
3,COc1ccc(/C=N/Nc2cc(C)nc3ccc(Br)cc23)cc1,9.88 µM
4,Cc1ccc(Nc2nc(NCCO)c3ccccc3n2)cc1C,> 80 µM (inactive)
5,COc1ccccc1N=Cc1c(O)c2ccccc2oc1=O,9.23 µM
6,Cc1ccc2nc(SCC(=O)Nc3cc(C(F)(F)F)ccc3N3CCOCC3)[nH]c2c1,inactive
7,CCCOC(=O)c1cccc(Nc2nc(-c3cccnc3)nc3ccccc23)c1,> 80 µM (inactive)
8,Cc1ccc2c(c1)C(=O)C(=O)N2Cc1ccc(C(F)(F)F)cc1,inactive
9,Clc1ccc(C2=Nn3c(nnc3-c3cc(-c4ccccc4)n[nH]3)SC2)cc1,12.1 µM
10,COc1cc(OC)c2c(-c3cccc(-c4ccc(CO)cc4)c3)cc(=O)oc2c1,> 80 µM (inactive)
11,CSC1=NC(C)(C)C=C(/C=C/c2ccc(Cl)cc2)N1,9.17 µM
12,Cc1ccc(NC(=O)c2c(C)nc3sc(C(=O)NC4CCCC4)c(N)c3c2-c2ccco2)c(C)c1,inactive
13,Cc1cc(C)c2sc(N(CCCN(C)C)C(=O)c3ccc(S(=O)(=O)N4CCCc5ccccc54)cc3)nc2c1,> 80 µM (inactive)
14,NC(=O)CC(NC(=O)Cc1cccc2ccccc12)c1ccc(NCCOc2ccccc2)c([N+](=O)[O-])c1 (stereo unspecified),> 80 µM (inactive)
15,COc1ccc2cc1Oc1ccc(cc1)CC1c3c(cc(OC)c4c3Oc3cc5c(cc3O4)CCNC5C2)CCN1C (stereo unspecified),> 80 µM (inactive)
16,CCOc1cc(/C=C(\C#N)c2[nH]nc(N)c2C#N)ccc1O,> 80 µM (inactive)
17,Cc1ccc2nc(/C(C#N)=C/c3ccc(O)c(O)c3)[nH]c2c1,13.7 µM
18,Cc1cccnc1Nc1nc(-c2ccc(O)c(O)c2)cs1,2.29 µM
19,COc1cc(/C=N/NC(N)=O)c(Br)cc1OCC(=O)Nc1ccccc1C,inactive
20,Cc1cccc(NC(=O)c2nc[nH]c2C(=O)Nc2ccccc2[N+](=O)[O-])c1,> 80 µM (inactive)
21,Cc1c(Cl)cccc1Nc1nc(NCCO)c2ccccc2n1,17 µM
22,COC(=O)C1C(O)=C(C=Nc2cccc3ccccc23)C(=O)CC1(C)C (stereo unspecified),1.41 µM
23,Cc1ccc(NC(=O)c2cc(S(=O)(=O)N(C)C)ccc2N2CCCC2)cc1S(=O)(=O)N(C)C,19 µM
